Data published in US10100076B2, “Modified nucleosides for the treatment of viral infections and abnormal cellular proliferation” (priority 2000, dated 2018).

System: Vero cells
Assay: cells
Assay type: cell-based
Conditions: not given
Method: (§1) The cytotoxicity testing as performed herein is a standard technique. Briefly, cells are seeded in 96-well plates at various concentrations (dependent on cell type, duration of assay), typically at 5×10^3 cells per well, in the presence of increasing concentrations of the test compound (0, 1, 3, 10, 33, and 100 μM). After three (Vero cells), or four (CEM cells), or five (PBM cells) day-incubation, cell viability and mitochondrial activity are measured by adding the MTT-dye (Promega), followed by a 8 hours incubation. Afterwards the plates containing the dye are fixed by adding a stop-solution followed by another eight hour incubation. Finally, absorbance is read at 570 nm. Such methodologies are well described and available from the manufacturer (Promega).

Question: With `O=c1ccn([C@@H]2CC[C@H](CO)C2)c(=O)[nH]1` [β-L-GC] as the molecule, how does the IC50 read?
Answer: The IC50 was > 100 µM.

Question: With `Nc1nc(=O)n([C@H]2C[C@@H](CO)[C@H](O)[C@@H]2O)cc1Cl` [β-L-GI] as the molecule, how does the IC50 read?
Answer: The IC50 was > 100 µM.

Question: `Nc1ccn(C2CCC(CO)C2)c(=O)n1` [β-L-GE] was tested. Which IC50 did it give?
Answer: The IC50 was > 100 µM.

Question: How did the IC50 turn out when `O=c1[nH]c(=O)n([C@@H]2C[C@H](CO)[C@@H](O)[C@H]2O)cc1F` [β-D-GF] was run?
Answer: Its IC50 is > 100 µM.

Question: How did the IC50 turn out when `Nc1nc(=O)n([C@@H]2CC[C@H](CO)C2)cc1I` [β-L-GG] was run?
Answer: The IC50 was > 100 µM.

Question: Which IC50 does the source give for `Nc1nc(=O)n([C@H]2C[C@@H](CO)[C@H](O)[C@@H]2O)cc1I` [β-L-GH] here?
Answer: Its IC50 is > 100 µM.

Question: How did the IC50 turn out when `Nc1ccn([C@H]2C[C@@H](CO)[C@H](O)[C@@H]2O)c(=O)n1` [β-L-GD] was run?
Answer: Its IC50 is > 100 µM.

Question: `Nc1nc(=O)n([C@H]2C[C@@H](CO)[C@H](O)[C@@H]2O)cc1F` [β-L-GA] was tested. Which IC50 did it give?
Answer: Its IC50 is > 100 µM.

Question: How did the IC50 turn out when `O=c1[nH]c(=O)n([C@H]2C[C@@H](CO)[C@H](O)[C@@H]2O)cc1F` [β-L-GF] was run?
Answer: Its IC50 is > 100 µM.

Same assay, conditions: 100 μM; three day incubation, MTT

Question: For `O=c1ccn([C@@H]2CC[C@H](CO)C2)c(=O)[nH]1` [β-L-GC], which “% inhibition at 100 μM, Vero Cells” value is on record?
Answer: The value was −13.4%.

Question: For `Nc1nc(=O)n([C@H]2C[C@@H](CO)[C@H](O)[C@@H]2O)cc1Cl` [β-L-GI], which “% inhibition at 100 μM, Vero Cells” value is on record?
Answer: The value was 31.9%.

Question: For `Nc1ccn(C2CCC(CO)C2)c(=O)n1` [β-L-GE], which “% inhibition at 100 μM, Vero Cells” value is on record?
Answer: The value was 10.6%.

Question: For `O=c1[nH]c(=O)n([C@@H]2C[C@H](CO)[C@@H](O)[C@H]2O)cc1F` [β-D-GF], which “% inhibition at 100 μM, Vero Cells” value is on record?
Answer: Its value is 4.3%.

Question: How did the “% inhibition at 100 μM, Vero Cells” value turn out when `Nc1nc(=O)n([C@@H]2CC[C@H](CO)C2)cc1I` [β-L-GG] was run?
Answer: Its value is 33.6%.

Question: How did the “% inhibition at 100 μM, Vero Cells” value turn out when `Nc1nc(=O)n([C@H]2C[C@@H](CO)[C@H](O)[C@@H]2O)cc1I` [β-L-GH] was run?
Answer: The value was 27.0%.

Question: How did the “% inhibition at 100 μM, Vero Cells” value turn out when `Nc1ccn([C@H]2C[C@@H](CO)[C@H](O)[C@@H]2O)c(=O)n1` [β-L-GD] was run?
Answer: Its value is 0.8%.

Question: Which “% inhibition at 100 μM, Vero Cells” value does the source give for `Nc1nc(=O)n([C@H]2C[C@@H](CO)[C@H](O)[C@@H]2O)cc1F` [β-L-GA] here?
Answer: Its value is 27.9%.

Question: `O=c1[nH]c(=O)n([C@H]2C[C@@H](CO)[C@H](O)[C@@H]2O)cc1F` [β-L-GF] was tested. Which “% inhibition at 100 μM, Vero Cells” value did it give?
Answer: Its value is 33.8%.

System: CEM cells
Assay: cells
Assay type: cell-based, human
Conditions: not given
Method: as §1

Question: Which IC50 does the source give for `O=c1ccn([C@@H]2CC[C@H](CO)C2)c(=O)[nH]1` [β-L-GC] here?
Answer: Its IC50 is > 100 µM.

Question: How did the IC50 turn out when `Nc1nc(=O)n([C@H]2C[C@@H](CO)[C@H](O)[C@@H]2O)cc1Cl` [β-L-GI] was run?
Answer: The IC50 was > 100 µM.

Question: `Nc1ccn(C2CCC(CO)C2)c(=O)n1` [β-L-GE] was tested. Which IC50 did it give?
Answer: Its IC50 is > 100 µM.

Question: Which IC50 does the source give for `O=c1[nH]c(=O)n([C@@H]2C[C@H](CO)[C@@H](O)[C@H]2O)cc1F` [β-D-GF] here?
Answer: The IC50 was > 100 µM.

Question: With `Nc1nc(=O)n([C@@H]2CC[C@H](CO)C2)cc1I` [β-L-GG] as the molecule, how does the IC50 read?
Answer: Its IC50 is > 100 µM.

Question: `Nc1nc(=O)n([C@H]2C[C@@H](CO)[C@H](O)[C@@H]2O)cc1I` [β-L-GH] was tested. Which IC50 did it give?
Answer: The IC50 was > 100 µM.

Question: Which IC50 does the source give for `Nc1ccn([C@H]2C[C@@H](CO)[C@H](O)[C@@H]2O)c(=O)n1` [β-L-GD] here?
Answer: Its IC50 is > 100 µM.

Question: With `Nc1nc(=O)n([C@H]2C[C@@H](CO)[C@H](O)[C@@H]2O)cc1F` [β-L-GA] as the molecule, how does the IC50 read?
Answer: The IC50 was > 100 µM.

Question: Which IC50 does the source give for `O=c1[nH]c(=O)n([C@H]2C[C@@H](CO)[C@H](O)[C@@H]2O)cc1F` [β-L-GF] here?
Answer: The IC50 was > 100 µM.

Same assay, conditions: 100 μM; four day incubation, MTT

Question: How did the “% inhibition at 100 μM, CEM Cells” value turn out when `O=c1ccn([C@@H]2CC[C@H](CO)C2)c(=O)[nH]1` [β-L-GC] was run?
Answer: The value was −1.2%.

Question: How did the “% inhibition at 100 μM, CEM Cells” value turn out when `Nc1nc(=O)n([C@H]2C[C@@H](CO)[C@H](O)[C@@H]2O)cc1Cl` [β-L-GI] was run?
Answer: Its value is 18.0%.

Question: How did the “% inhibition at 100 μM, CEM Cells” value turn out when `Nc1ccn(C2CCC(CO)C2)c(=O)n1` [β-L-GE] was run?
Answer: The value was 0.0%.

Question: `O=c1[nH]c(=O)n([C@@H]2C[C@H](CO)[C@@H](O)[C@H]2O)cc1F` [β-D-GF] was tested. Which “% inhibition at 100 μM, CEM Cells” value did it give?
Answer: Its value is 11.2%.

Question: Which “% inhibition at 100 μM, CEM Cells” value does the source give for `Nc1nc(=O)n([C@@H]2CC[C@H](CO)C2)cc1I` [β-L-GG] here?
Answer: The value was 17.3%.

Question: With `Nc1nc(=O)n([C@H]2C[C@@H](CO)[C@H](O)[C@@H]2O)cc1I` [β-L-GH] as the molecule, how does the “% inhibition at 100 μM, CEM Cells” value read?
Answer: The value was 19.7%.

Question: For `Nc1ccn([C@H]2C[C@@H](CO)[C@H](O)[C@@H]2O)c(=O)n1` [β-L-GD], which “% inhibition at 100 μM, CEM Cells” value is on record?
Answer: Its value is −79.7%.

Question: Which “% inhibition at 100 μM, CEM Cells” value does the source give for `Nc1nc(=O)n([C@H]2C[C@@H](CO)[C@H](O)[C@@H]2O)cc1F` [β-L-GA] here?
Answer: Its value is 1.1%.

Question: For `O=c1[nH]c(=O)n([C@H]2C[C@@H](CO)[C@H](O)[C@@H]2O)cc1F` [β-L-GF], which “% inhibition at 100 μM, CEM Cells” value is on record?
Answer: The value was 35.1%.

System: PBM cells
Assay: cells
Assay type: cell-based, human
Conditions: not given
Method: as §1

Question: With `O=c1ccn([C@@H]2CC[C@H](CO)C2)c(=O)[nH]1` [β-L-GC] as the molecule, how does the IC50 read?
Answer: Its IC50 is > 100 µM.

Question: For `Nc1nc(=O)n([C@H]2C[C@@H](CO)[C@H](O)[C@@H]2O)cc1Cl` [β-L-GI], which IC50 is on record?
Answer: The IC50 was > 100 µM.

Question: How did the IC50 turn out when `Nc1ccn(C2CCC(CO)C2)c(=O)n1` [β-L-GE] was run?
Answer: Its IC50 is > 100 µM.

Question: Which IC50 does the source give for `O=c1[nH]c(=O)n([C@@H]2C[C@H](CO)[C@@H](O)[C@H]2O)cc1F` [β-D-GF] here?
Answer: Its IC50 is > 100 µM.

Question: With `Nc1nc(=O)n([C@@H]2CC[C@H](CO)C2)cc1I` [β-L-GG] as the molecule, how does the IC50 read?
Answer: The IC50 was > 100 µM.

Question: Which IC50 does the source give for `Nc1nc(=O)n([C@H]2C[C@@H](CO)[C@H](O)[C@@H]2O)cc1I` [β-L-GH] here?
Answer: Its IC50 is > 100 µM.

Question: `Nc1ccn([C@H]2C[C@@H](CO)[C@H](O)[C@@H]2O)c(=O)n1` [β-L-GD] was tested. Which IC50 did it give?
Answer: Its IC50 is > 100 µM.

Question: Which IC50 does the source give for `Nc1nc(=O)n([C@H]2C[C@@H](CO)[C@H](O)[C@@H]2O)cc1F` [β-L-GA] here?
Answer: Its IC50 is > 100 µM.

Question: How did the IC50 turn out when `O=c1[nH]c(=O)n([C@H]2C[C@@H](CO)[C@H](O)[C@@H]2O)cc1F` [β-L-GF] was run?
Answer: The IC50 was > 100 µM.

Same assay, conditions: 100 μM; five day incubation, MTT

Question: For `O=c1ccn([C@@H]2CC[C@H](CO)C2)c(=O)[nH]1` [β-L-GC], which “% inhibition at 100 μM, PBM cells” value is on record?
Answer: The value was −53.2%.

Question: `Nc1nc(=O)n([C@H]2C[C@@H](CO)[C@H](O)[C@@H]2O)cc1Cl` [β-L-GI] was tested. Which “% inhibition at 100 μM, PBM cells” value did it give?
Answer: Its value is −47.8%.

Question: How did the “% inhibition at 100 μM, PBM cells” value turn out when `Nc1ccn(C2CCC(CO)C2)c(=O)n1` [β-L-GE] was run?
Answer: The value was −59.7%.

Question: For `O=c1[nH]c(=O)n([C@@H]2C[C@H](CO)[C@@H](O)[C@H]2O)cc1F` [β-D-GF], which “% inhibition at 100 μM, PBM cells” value is on record?
Answer: The value was −46.2%.

Question: With `Nc1nc(=O)n([C@@H]2CC[C@H](CO)C2)cc1I` [β-L-GG] as the molecule, how does the “% inhibition at 100 μM, PBM cells” value read?
Answer: The value was −34.6%.

Question: `Nc1nc(=O)n([C@H]2C[C@@H](CO)[C@H](O)[C@@H]2O)cc1I` [β-L-GH] was tested. Which “% inhibition at 100 μM, PBM cells” value did it give?
Answer: Its value is −52.1%.

Question: `Nc1ccn([C@H]2C[C@@H](CO)[C@H](O)[C@@H]2O)c(=O)n1` [β-L-GD] was tested. Which “% inhibition at 100 μM, PBM cells” value did it give?
Answer: The value was −12.9%.

Question: With `Nc1nc(=O)n([C@H]2C[C@@H](CO)[C@H](O)[C@@H]2O)cc1F` [β-L-GA] as the molecule, how does the “% inhibition at 100 μM, PBM cells” value read?
Answer: The value was −113.2%.

Question: `O=c1[nH]c(=O)n([C@H]2C[C@@H](CO)[C@H](O)[C@@H]2O)cc1F` [β-L-GF] was tested. Which “% inhibition at 100 μM, PBM cells” value did it give?
Answer: The value was −70.4%.
